Measurements from US20020025332A1, “Cosmetic compositions containing substituted sulfonamide derivatives” (Unilever Home & Personal Care USA, Division of Conopco, Inc., priority 2000, published 2002).
Several values for one entry are separate records, joined by “and”; a condition that tells them apart may be missing. Equal entries are not always repeated. Where two headings read alike, the source gives them in different places.

System: human sebocytes
Experiment: Sebum suppression: 14C-acetate label remaining in cultured human sebocytes after treatment
Format: cell-based
Conditions: for activity at 1 µM / activity at 10 µM / activity at 100 µM / activity at 0.1 µM: read-out: % of Control; for sebum suppressive activity in the presence of retinol: in the presence of retinol / a retinoid versus compound alone
Description: Compounds A through K were tested for their potential to suppress sebum expression, alone or in the presence of a retinoid.
Secondary cultures of human sebocytes obtained from an adult […] were grown in 48-well tissue culture plates (Costar Corp.; Cambridge, Mass.) or 96-well tissue culture plates (Packard Co.; Meriden, Conn.) until confluent. Sebocyte growth medium consisted of Clonetics Keratinocyte Basal Medium (KBM) supplemented with 14 μg/ml bovine pituitary extract, 0.4 μg/ml hydrocortisone, 5 μg/ml insulin, […], 1.2×10^-10 M cholera toxin, 100 units/ml penicillin, and 100 μg/ml streptomycin. All cultures were incubated at 37° C. in the presence of 7.5% CO2. Medium was changed three times per week.
On the day of experimentation, the growth medium was removed and the sebocytes washed three times with sterile Dulbecco's Modified Eagle Medium (DMEM; phenol red free). Fresh DMEM was added to each sample (duplicates, triplicates, or quadruplicates depending on the experiment) with 5 microliter of test agent solubilized in ethanol either alone or in the presence of one or 10 micromolar of retinol. Controls consisted of addition of ethanol alone, retinol alone, or phenol red, which has estrogen-like activity and is included as a positive control.
Each plate was returned to the incubator for 20 hours followed by the addition of 14C-acetate buffer (5 mM final concentration, 56 mCi/mmol specific activity). Sebocytes were returned to the incubator for four hours afterwhich each culture was rinsed three times with phosphate buffered saline to remove unbound label. Radioactive label remaining in the sebocytes was harvested and counted using a Beckman scintillation counter.

[1] = 1 μM test agent + 10 μM Retinol
[2] = 10 μM test agent + 1 μM Retinol
[3] = Homo sapiens, 1 μM test agent + 1 μM Retinol
[4] = Homo sapiens, 1 μM test agent + 10 μM Retinol
[5] = Homo sapiens, 1 μM test agent alone
[6] = Homo sapiens, 10 μM test agent + 1 μM Retinol
[7] = Homo sapiens, 10 μM test agent alone
[8] = 10 μM test agent + 10 μM Retinol
[9] = Homo sapiens, 10 μM test agent + 10 μM Retinol
[10] = Homo sapiens, 100 μM test agent + 1 μM Retinol
[11] = Homo sapiens, 100 μM test agent + 10 μM Retinol
[12] = Homo sapiens, 100 μM test agent alone

Row | Structure (SMILES) | % of Control (1 μM test agent + 1 μM Retinol) | % of Control [1] | % of Control (1 μM test agent alone, 1 µM) | % of Control [2] | % of Control (10 μM test agent alone, 10 µM) | activity at 1 µM [3] | activity at 1 µM [4] | activity at 1 µM [5] | activity at 10 µM [6] | activity at 10 µM [7] | sebum suppressive activity in the presence of retinol | % of Control [8] | activity at 10 µM [9] | activity at 100 µM [11] | activity at 100 µM [12] | also measured
1 | COc1ccc(S(=O)(=O)Nc2cccc(C(C)O)c2)cc1 (stereo not drawn) [Compound A] | 102.5% | 94.6% | 100.7% | 65.8% | 91.9% | 112% | 101% | 111% | 46% | 109% | improved sebum suppressive activity |  |  |  |  | 
2 | CC(O)c1cccc(NS(=O)(=O)c2c(F)c(F)c(F)c(F)c2F)c1 (stereo not drawn) [Compound B] | 94.7% | 96.5% | 98.4% | 90.1% | 89.3% | 90.9% | 96.4% | 79.8% | 80.6% | 95.4% |  | 84.8% | 84.4% | 72.2% | 74.2% | activity at 100 µM [10]: 75.3%
3 | CC(O)c1cccc(NS(=O)(=O)c2ccc(Cl)c([N+](=O)[O-])c2)c1 (stereo not drawn) [Compound C] |  |  |  |  |  | 87.7% | 77.5% | 101% | 95.5% | 79% | improved sebum suppressive activity |  | 84.8% | 5.3% | 37.8% | activity at 100 µM [10]: 20.8%
4 | CC(O)c1cccc(NS(=O)(=O)c2cccc3c(N(C)C)cccc23)c1 (stereo not drawn) [Compound D] |  | 102.8% | 126.4% and 102.4% |  | 71.6% and 43.3% | 102% | 89.1% |  | 60.8% |  | improved sebum suppressive activity |  |  | 1.2% | 6.7% | 
5 | CC(O)c1cccc(NS(=O)(=O)c2cccs2)c1 (stereo not drawn) [Compound E] | 98.3% | 110.2% | 103.3% | 5.7% and 1.6% |  | 103% | 102% | 94.6% |  |  |  |  |  |  |  | 
6 | O=[N+]([O-])c1cc(S(=O)(=O)Nc2ccc3c(c2)OCCO3)ccc1Cl [Compound F] | 100.4% and 75.9% | 74.2% | 80.7% | 1.8% and 0.6% |  |  | 89.1% | 79.6% |  |  |  |  | 1.2% |  |  | 
7 | O=S(=O)(Nc1ccc2c(c1)OCCO2)c1ccc2ccccc2c1 [Compound G] |  |  | 82.0% | 39.9% | 45.7% and 25.0% |  |  | 67.5% | 24.8% |  | improved sebum suppressive activity | 13.1% | 17.9% |  |  | activity at 0.1 µM (Homo sapiens, 0.1 μM test agent + 1 μM Retinol): 103%; activity at 0.1 µM (Homo sapiens, 0.1 μM test agent + 10 μM Retinol): 94.1%; activity at 0.1 µM (Homo sapiens, 0.1 μM test agent alone, 14C-acetate label in sebocytes): 101%
8 | CN(C)c1cccc(NS(=O)(=O)c2ccc(Cl)c([N+](=O)[O-])c2)c1 [Compound H] | 88.0% and 90.2% and 65.1% | 86.8% and 78.8% and 53.6% and 91.1% | 96.1% and 71.7% and 66.6% and 83.4% |  |  |  |  |  |  |  |  | 80.3% and 76.1% and 79.2% and 118.0% |  | 3.9% | 44.2% | 
9 | CN(C)c1cccc(NS(=O)(=O)c2ccc3ccccc3c2)c1 [Compound J] |  | 67.9% and 93.8% | 55.6% |  | 81.7% | 74.1% |  | 74.6% | 64.7% | 67.5% |  | 69.8% | 63.9% | 2% | 1.2% | 
10 | O=S1(=O)OC(c2ccc(O)cc2)(c2ccc(O)cc2)c2ccccc21 [Phenol Red, phenol red, reference compound] |  |  |  |  |  |  |  |  |  |  |  |  |  |  |  | % of Control (28 μM (positive control) alone, 28 µM): 74.7% and 68.4% and 84.4%; % of Control (280 μM (positive control) alone): 54.2% and 52.5%; activity at 28 µM (Homo sapiens, 28 μM (positive control) alone): 67.6%
11 | CC1=C(/C=C/C(C)=C/C=C/C(C)=C/CO)C(C)(C)CCC1 [Retinol, retinol, reference compound] |  |  | 85.5% and 96.5% and 99.9% and 103.7% and 99.3% and 93.9% |  |  |  |  | 98.4% |  |  |  |  |  |  |  | sebum suppressive activity (alone, 1 or 10 μM): inactive
